# Literature values, collected in patent US20190383817A1, “PREDICTING RESPONSE TO IMMUNOMODULATORY DRUGS (IMIDS) IN MULTIPLE MYELOMA PATIENTS” (SKYLINEDX B.V., priority 2016, published 2019).
# How the values were obtained:
# [1] = test system: IKAROS transcription factors; settings: compared with thalidomide
# MM patients = settings: compared against non-Bortezomib containing regimes such as VAD
# CRBN = settings: comparison among thalidomide, lenalidomide, pomalidomide
smiles,measurement,setting,value
"Cc1cccc2c1C(=O)N(C1CCC(=O)NC1=O)C2=O (stereo not drawn) [2-(2,6-dioxopiperidin-3-yl)-4-methylisoindoline-1,3-dione]",efficiency at targeting IKAROS transcription factors for degradation by CRBN,[1],more efficient
CC(C)C[C@H](NC(=O)[C@H](Cc1ccccc1)NC(=O)c1cnccn1)B(O)O [Bortezomib],Overall Survival (OS),MM patients,significantly prolonged
same,Progression Free Survival (PFS),MM patients,significantly prolonged
"Nc1cccc2c1C(=O)N(C1CCC(=O)NC1=O)C2=O (stereo not drawn) [pomalidomide, 4-Amino-2-(2,6-dioxopiperidin-3-yl)isoindole-1,3-dione]",binding to CRBN,CRBN,bind similarly to CRBN
same,efficiency at targeting IKAROS transcription factors for degradation by CRBN,[1],more efficient
"O=C1CCC(N2C(=O)c3ccccc3C2=O)C(=O)N1 (stereo not drawn) [thalidomide, 2-(2,6-dioxopiperidin-3-yl)-1H-isoindole-1,3(2H)-dione]",binding to CRBN,CRBN,bind similarly to CRBN
